Counter-ions that a name gives are not always drawn.
Tests used:
Cbl-b = Cbl-b (Homo sapiens (Human), UniProt Q13191); test: Cbl-b LCK Ub TR-FRET assay (Cbl-b Lck HTRF); type: biochemical
Method in brief: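 Biotin-Cbl-b preincubated with compound (10-point 3-fold series) 60 min, then His-LCK with 1 mM ATP (2× mixture) added for 90 min at room temperature. Ubiquitination detected by TR-FRET using HA-ubiquitin/UBE2D2 adduct, anti-HA-D2 and streptavidin-Eu; IC50 normalised to no-LCK and DMSO controls.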

c-Cbl = c-Cbl (Homo sapiens (Human), UniProt P22681); test: C-Cbl LCK Ub TR-FRET assay (c-cbl Lck HTRF); type: biochemical; conditions: for (fold-selectivity): C-cbl Lck HTRF IC50 relative to Cbl-b Lck HTRF IC50
Chain of c-Cbl (P22681 47-435): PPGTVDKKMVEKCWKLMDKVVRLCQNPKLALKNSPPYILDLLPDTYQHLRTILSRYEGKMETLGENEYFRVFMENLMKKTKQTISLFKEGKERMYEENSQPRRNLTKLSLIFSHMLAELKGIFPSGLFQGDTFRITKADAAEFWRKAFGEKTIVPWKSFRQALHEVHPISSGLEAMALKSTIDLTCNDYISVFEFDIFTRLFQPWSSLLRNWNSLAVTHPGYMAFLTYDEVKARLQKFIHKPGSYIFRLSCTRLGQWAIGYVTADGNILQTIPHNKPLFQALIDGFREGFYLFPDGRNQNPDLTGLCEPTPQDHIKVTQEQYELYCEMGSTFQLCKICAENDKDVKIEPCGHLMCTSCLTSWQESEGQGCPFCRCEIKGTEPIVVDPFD
Method in brief: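 Detection reagents added, brief spin, 20 min RT. IC50 fit normalized to no-LCK (low) and DMSO (high) controls.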

Chain of Cbl-b (Q13191 40-426): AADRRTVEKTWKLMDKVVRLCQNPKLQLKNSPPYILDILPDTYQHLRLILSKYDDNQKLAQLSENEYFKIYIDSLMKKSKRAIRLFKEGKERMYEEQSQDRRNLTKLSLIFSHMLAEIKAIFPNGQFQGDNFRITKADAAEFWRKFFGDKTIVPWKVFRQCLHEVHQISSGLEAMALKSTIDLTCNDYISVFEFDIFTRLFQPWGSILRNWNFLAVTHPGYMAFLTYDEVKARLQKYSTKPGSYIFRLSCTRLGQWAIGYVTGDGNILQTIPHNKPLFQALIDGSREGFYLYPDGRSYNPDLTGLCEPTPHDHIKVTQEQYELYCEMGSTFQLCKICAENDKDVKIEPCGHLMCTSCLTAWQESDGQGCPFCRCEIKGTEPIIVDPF

Row | Compound | IC50 (Cbl-b) [nM] | IC50 (c-Cbl) [nM] | (fold-selectivity) (c-Cbl)
1 | CC(C)[C@H]1CN(C)CCN1Cc1cc2c(c(C(F)(F)F)c1)CN(c1cccc(C3(C(F)(F)c4nncn4C)CC(F)(F)C3)c1)C2=O [Compound 432, (S)-2-(3-(1-(difluoro(4-methyl-4H-1,2,4-triazol-3-yl)methyl)-3,3-difluorocyclobutyl)phenyl)-6-((2-isopropyl-4-methylpiperazin-1-yl)methyl)-4-(trifluoromethyl)isoindolin-1-one] | 17 | 13 | (0.78x)
2 | CC[C@H]1CN(C)CCN1Cc1cc2c(c(C(F)(F)F)c1)CN(c1cccc(C3(Cc4nncn4C)CC(F)(F)C3)c1)C2=O [Compound 434, (S)-2-(3-(3,3-difluoro-1-((4-methyl-4H-1,2,4-triazol-3-yl)methyl)cyclobutyl)phenyl)-6-((2-ethyl-4-methylpiperazin-1-yl)methyl)-4-(trifluoromethyl)isoindolin-1-one] | 18 | 17 | (0.95x)
3 | Cn1cnnc1CC1(c2cccc(N3Cc4c(cc([C@H](N)C5CC5)cc4C(F)(F)F)C3=O)c2)CC(F)(F)C1 [Compound 435, (R)-6-(amino(cyclopropyl)methyl)-2-(3-(3,3-difluoro-1-((4-methyl-4H-1,2,4-triazol-3-yl)methyl)cyclobutyl)phenyl)-4-(trifluoromethyl)isoindolin-1-one] | 19 | 19 | (1.0x)
4 | CC(C)[C@@H]1CN(Cc2cc3c(c(C(F)(F)F)c2)CN(c2cccc(C4(Cc5nncn5C)CC(F)(F)C4)c2)C3=O)CCN1C [Compound 438, (R)-2-(3-(3,3-difluoro-1-((4-methyl-4H-1,2,4-triazol-3-yl)methyl)cyclobutyl)phenyl)-6-((3-isopropyl-4-methylpiperazin-1-yl)methyl)-4-(trifluoromethyl)isoindolin-1-one] | 41 | 32 | (0.80x)
5 | CC(C)[C@H]1CN(Cc2cc3c(c(C(F)(F)F)c2)CN(c2cccc(C4(Cc5nncn5C)CC(F)(F)C4)c2)C3=O)CCN1C [Compound 439, (S)-2-(3-(3,3-difluoro-1-((4-methyl-4H-1,2,4-triazol-3-yl)methyl)cyclobutyl)phenyl)-6-((3-isopropyl-4-methylpiperazin-1-yl)methyl)-4-(trifluoromethyl)isoindolin-1-one] | 12 | 7.1 | (0.58x)
6 | CN1CC(Cc2cc3c(c(C(F)(F)F)c2)CN(c2cccc(C4(Cc5nncn5C)CC(F)(F)C4)c2)C3=O)C1 [Compound 442, 2-(3-(3,3-difluoro-1-((4-methyl-4H-1,2,4-triazol-3-yl)methyl)cyclobutyl)phenyl)-6-((1-methylazetidin-3-yl)methyl)-4-(trifluoromethyl)isoindolin-1-one formate] | 96 | 64 | 
7 | CN1CCN(Cc2cc3c(c(C(F)(F)F)c2)CN(c2cccc(C4(Cc5nncn5C)CC(F)(F)C4)c2)C3=O)C(=O)C1 [Compound 444, 2-(3-(3,3-difluoro-1-((4-methyl-4H-1,2,4-triazol-3-yl)methyl)cyclobutyl)phenyl)-6-((4-methyl-2-oxopiperazin-1-yl)methyl)-4-(trifluoromethyl)isoindolin-1-one] | 170 | 180 | (1.1x)
8 | CCCNCc1cc2c(c(C(F)(F)F)c1)CN(c1cccc(C3([C@@H](F)c4nncn4C)CC(F)(F)C3)c1)C2=O [Compound 445, (R)-2-(3-(3,3-difluoro-1-(fluoro(4-methyl-4H-1,2,4-triazol-3-yl)methyl)cyclobutyl)phenyl)-6-((propylamino)methyl)-4-(trifluoromethyl)isoindolin-1-one] | 26 | 33 | (1.3x)
9 | CCCNCc1cc2c(c(C(F)(F)F)c1)CN(c1cccc(C3([C@H](F)c4nncn4C)CC(F)(F)C3)c1)C2=O [Compound 446, (S)-2-(3-(3,3-difluoro-1-(fluoro(4-methyl-4H-1,2,4-triazol-3-yl)methyl)cyclobutyl)phenyl)-6-((propylamino)methyl)-4-(trifluoromethyl)isoindolin-1-one] | 26 | 29 | (1.3x)
10 | Cn1cnnc1[C@H](F)C1(c2cccc(N3Cc4c(cc(CNCCCF)cc4C(F)(F)F)C3=O)c2)CC(F)(F)C1 [Compound 447, (R)-2-(3-(3,3-difluoro-1-(fluoro(4-methyl-4H-1,2,4-triazol-3-yl)methyl)cyclobutyl)phenyl)-6-(((3-fluoropropyl)amino)methyl)-4-(trifluoromethyl)isoindolin-1-one] | 16 | 20 | (1.2x)
11 | Cn1cnnc1[C@@H](F)C1(c2cccc(N3Cc4c(cc(CNCCCF)cc4C(F)(F)F)C3=O)c2)CC(F)(F)C1 [Compound 448, (S)-2-(3-(3,3-difluoro-1-(fluoro(4-methyl-4H-1,2,4-triazol-3-yl)methyl)cyclobutyl)phenyl)-6-(((3-fluoropropyl)amino)methyl)-4-(trifluoromethyl)isoindolin-1-one] | 14 | 16 | (1.1x)
12 | Cn1cnnc1[C@H](F)C1(c2cccc(N3Cc4c(cc(CNCC5CC5)cc4C(F)(F)F)C3=O)c2)CC(F)(F)C1 [Compound 449, (R)-6-(((cyclopropylmethyl)amino)methyl)-2-(3-(3,3-difluoro-1-(fluoro(4-methyl-4H-1,2,4-triazol-3-yl)methyl)cyclobutyl)phenyl)-4-(trifluoromethyl)isoindolin-1-one] | 20 | 21 | (1.1x)

More lines, now with the values ahead:

Row | IC50 (Cbl-b) [nM] | IC50 (c-Cbl) [nM] | (fold-selectivity) (c-Cbl) | Compound
13 | 26 | 20 | (0.76x) | CC(C)[C@H]1CN(Cc2cc3c(c(C(F)(F)F)c2)CN(c2cccc(C4(Cc5nncn5C)CC(F)(F)C4)c2)C3=O)CCN1 [Compound 429, (S)-2-(3-(3,3-difluoro-1-((4-methyl-4H-1,2,4-triazol-3-yl)methyl)cyclobutyl)phenyl)-6-((3-isopropylpiperazin-1-yl)methyl)-4-(trifluoromethyl)isoindolin-1-one]
14 | 43 | 35 | (0.80x) | Cn1cnnc1CC1(c2cccc(N3Cc4c(cc(CN5CCN[C@H](C6CC6)C5)cc4C(F)(F)F)C3=O)c2)CC(F)(F)C1 [Compound 430, (R)-6-((3-cyclopropylpiperazin-1-yl)methyl)-2-(3-(3,3-difluoro-1-((4-methyl-4H-1,2,4-triazol-3-yl)methyl)cyclobutyl)phenyl)-4-(trifluoromethyl)isoindolin-1-one]
15 | 48 | 42 | (0.87x) | Cn1cnnc1CC1(c2cccc(N3Cc4c(cc(CN5CCN[C@@H](C6CC6)C5)cc4C(F)(F)F)C3=O)c2)CC(F)(F)C1 [Compound 431, (S)-6-((3-cyclopropylpiperazin-1-yl)methyl)-2-(3-(3,3-difluoro-1-((4-methyl-4H-1,2,4-triazol-3-yl)methyl)cyclobutyl)phenyl)-4-(trifluoromethyl)isoindolin-1-one]
16 | 94 | 120 | (1.3x) | CN1CCN(Cc2cc3c(c(C(F)(F)F)c2)CN(c2cccc(C4(Cc5nncn5C)CC(F)(F)C4)c2)C3=O)[C@H](C2CC2)C1 [Compound 433, (R)-6-((2-cyclopropyl-4-methylpiperazin-1-yl)methyl)-2-(3-(3,3-difluoro-1-((4-methyl-4H-1,2,4-triazol-3-yl)methyl)cyclobutyl)phenyl)-4-(trifluoromethyl)isoindolin-1-one]
17 | 34 | 32 | (0.97x) | Cn1cnnc1CC1(c2cccc(N3Cc4c(cc(CN5CCNC[C@H]5C5CC5)cc4C(F)(F)F)C3=O)c2)CC(F)(F)C1 [Compound 436, (R)-6-((2-cyclopropylpiperazin-1-yl)methyl)-2-(3-(3,3-difluoro-1-((4-methyl-4H-1,2,4-triazol-3-yl)methyl)cyclobutyl)phenyl)-4-(trifluoromethyl)isoindolin-1-one]
18 | 62 | 900 | (0.97x) | Cn1cnnc1CC1(c2cccc(N3Cc4c(cc(CN5CCNCC5)cc4C(F)(F)F)C3=O)c2)CC(F)(F)C1 [Compound 437, 2-(3-(3,3-difluoro-1-((4-methyl-4H-1,2,4-triazol-3-yl)methyl)cyclobutyl)phenyl)-6-(piperazin-1-ylmethyl)-4-(trifluoromethyl)isoindolin-1-one]
19 | 140 | 110 | (0.79x) | Cn1cnnc1CC1(c2cccc(N3Cc4c(cc(CN5CCC[C@](C)(O)C5)cc4C(F)(F)F)C3=O)c2)CC(F)(F)C1 [Compound 440, (S)-2-(3-(3,3-difluoro-1-((4-methyl-4H-1,2,4-triazol-3-yl)methyl)cyclobutyl)phenyl)-6-((3-hydroxy-3-methylpiperidin-1-yl)methyl)-4-(trifluoromethyl)isoindolin-1-one]
20 | 42 | 23 | (0.56x) | Cn1cnnc1CC1(c2cccc(N3Cc4c(cc(CN5CCC[C@@](C)(O)C5)cc4C(F)(F)F)C3=O)c2)CC(F)(F)C1 [Compound 441, (R)-2-(3-(3,3-difluoro-1-((4-methyl-4H-1,2,4-triazol-3-yl)methyl)cyclobutyl)phenyl)-6-((3-hydroxy-3-methylpiperidin-1-yl)methyl)-4-(trifluoromethyl)isoindolin-1-one]
21 | 59 | 180 | (2.8x) | CO[C@H]1CCCN(Cc2cc3c(c(C(F)(F)F)c2)CN(c2cccc(C4(Cc5nncn5C)CC(F)(F)C4)c2)C3=O)C1 [Compound 443, (S)-2-(3-(3,3-difluoro-1-((4-methyl-4H-1,2,4-triazol-3-yl)methyl)cyclobutyl)phenyl)-6-((3-methoxypiperidin-1-yl)methyl)-4-(trifluoromethyl)isoindolin-1-one]

Source: US20250230147A1, “LACTAMS AS CBL-B INHIBITORS” (Genentech, Inc., priority 2021, published 2025)
